# Patent US6790971B1, “19-Nor-steroids” (Aventis Pharma S.A., priority 1989, dated 2004)
# System: MCF-7 mammary tumoral cells
# Assay: Anti-proliferative activity upon the growth of MCF-7 cells (DNA measurement with DABA)
# Assay type: cell-based
# Conditions: 6 days, inhibition of the increase of DNA, read-out: concentration which inhibited the growth of MCF7 to an extent of 50% (IC50)
# Protocol: B. Anti-proliferative activity of the products of the invention upon the growth of MCF-7 mammary tumoral cells.
# The MCF-7 strains were kept under culture in FCS(1) medium at 37° C. under a humid atmosphere containing 5% CO2 and the cells at subconfluence were harvested by trypsination (0.05% trypsine, 0.02% EDTA), then rinsed by gentle centrifugation. A sample of the cells in suspension was counted on Malassez cell.
# The cells, resuspended in FCS medium, were seeded at a rate of 30,000 cells per pit in multi-pit plates (24 pits of 2.5 cm^2) and twenty four hours after seeding (DO), the product to be tested was added to the medium in ethanolic solution (final concentration in ethanol: 0.1%), at a concentration of 10^−12 to 10^−6 M, the control pits receiving the same concentration of ethanol. The media were renewed every 48 hours and at the end of the experiment (D6), the medium was sucked off and the cells were immediately fixed with 150 microliters of methanol to estimate the DNA. The anti-proliferative activity of the products was evaluated by their capacity to inhibit the increase of DNA.
# The DNA was measured by a fluorimetric method employing DABA (3,5-diaminobenzoic acid) (2): 150 microliters of DABA were added to each of the pits and the plates were then incubated for 45 minutes at 56° C., then 2 ml of 1 N HCl were added. The fluorescence was measured with the aid of a fluorimeter (length of the exiting wave: 408 nm, length of the emitting wave: 501 nm). The quantity of DNA per pit was evaluated with reference to a standard scale obtained by treating a standard DNA from calf thymus under the same conditions.
# The concentration in nM which inhibited the growth of MCF7 to an extent of 50% (IC50) was determined in the manner indicated below:
# (1) The fetal calf serum (FCS) culture medium was prepared as follows: MEM medium (minimal essential medium) to which were added:
# Non-essential amino acids (GIBCO),
# Peni-strepto (100 U/ml penicillin, 0.1 mg/ml streptomycin),
# Fetal calf serum containing no steroids (10% final concentration).
# (2) Puzas and Goodman, Analytical Biochemistry, Vol. 86, pp. 50, 1978.
row,Molecule,IC50 [nM]
1,"CCCCN(C)C(=O)CCCCCCCCCC[C@H]1C[C@]2(C)[C@@H](O)CC[C@H]2[C@@H]2CCc3cc(O)ccc3[C@@H]12 [Example 13, N-Butyl-3,17β-Dihydroxy-N-Methyl-11β-Δ^1,3,5(10)-Estratriene-Undecanamide]",0.5
2,"CC(C)N(C)C(=O)CCCCCCCCCC[C@H]1C[C@]2(C)[C@@H](O)CC[C@H]2[C@@H]2CCc3cc(O)ccc3[C@@H]12 [Example 16, 3,17β-dihydroxy-N-methyl-N-isopropyl-11β-Δ^1,3,5(10)-estratriene undecanamide]",0.02
3,"CCCCN(C)C(=O)CCCCCCCCCCC[C@H]1C[C@]2(C)[C@@H](O)CC[C@H]2[C@@H]2CCc3cc(O)ccc3[C@@H]12 [Example 24, N-butyl-3,17β-dihydroxy-N-methyl-11β-Δ^1,3,5(10)-estratriene dodecanamide]",0.06
4,"N-butyl-3,17β-dihydroxy-N-methyl-19-nor-11β-Δ^1,3,5(10)-pregnatrien-20-yn undecanamide [Example 21]",0.02
